Tested on: participants with SSc-RP
Experiment: Average duration of weekly RP attacks, all attacks (minutes)
Format: in vivo, human
Settings: for Average Duration of weekly RP attacks (All Attacks), Max / Average Duration of weekly RP attacks (All Attacks), Min / Average duration of weekly RP attacks (All Attacks), Change from Baseline, Max / Average duration of weekly RP attacks (All Attacks), Change from Baseline, Min / Average duration of weekly RP attacks (All Attacks), Change from Baseline, Q1 / Average duration of weekly RP attacks (All Attacks), Change from Baseline, Q3 / Average duration of weekly RP attacks (All Attacks), Percent Change from Baseline, Max / Average Duration of weekly RP attacks (All Attacks) / Average Duration of weekly RP attacks (All Attacks), Q1 / Average duration of weekly RP attacks (All Attacks), Change from Baseline / Average duration of weekly RP attacks (All Attacks), Percent Change from Baseline, Min / Average duration of weekly RP attacks (All Attacks), Percent Change from Baseline, Q1 / Average duration of weekly RP attacks (All Attacks), Percent Change from Baseline, Q3: last 7 days of dosing period
Description: The relevant metrics measured by this tool daily are: • Study medication • SSc-RP symptoms (Reporting an attack including duration of attack) • Severity of the attack considering all symptoms of the attack e.g. tingling, numbness, pain, color changes (VAS 0-10 cm scale) • Participant's location at the time of the attack (inside home/outside home) • Selecting symptoms experienced during the attack (tingling, numbness, pain, color changes, other) • Pain rating during the attack (11-point Likert scale) • The RCS based on how much difficulty participants had with Raynaud's today, how many attacks the participant had, and how long they lasted. Participants will also be asked to consider how much pain, numbness, or other symptoms the Raynaud's caused in fingers (including painful sores), and how much the Raynaud's alone affected the use of hands today (VAS 0-10 cm scale).
The absolute change in average duration of weekly RP attacks from baseline to the end of each dosing period was and will be a secondary outcome variable. The sponsor-developed participant-informed diary was and will be used to record data. Average duration of weekly RP attacks is defined as the total duration of RP attacks divided by total number of RP attacks within the last 7 days of each dosing period. Total duration of RP attacks during the last 7 days of screening period divided by the total number of RP attacks will be used as baseline for the analysis of all periods. The variable will be calculated similar to frequency data as before.

[1] = Excluding Outliers, ITT Population - Part A (Table B-6), listed as Cilnidipine 10 mg
[2] = Excluding Outliers, ITT Population - Part A (Table B-6), listed as Cilnidipine 20 mg
[3] = Excluding Outliers, ITT Population - Part A (Table B-6), listed as Pooled Cilnidipine
[4] = Excluding Outliers, ITT Population - Part A (Table B-6), last 7 days of screening period, listed as Cilnidipine 10 mg
[5] = Excluding Outliers, ITT Population - Part A (Table B-6), last 7 days of screening period, listed as Cilnidipine 20 mg
[6] = Excluding Outliers, ITT Population - Part A (Table B-6), last 7 days of screening period, listed as Pooled Cilnidipine
[7] = ITT Population - Part A (Table B-5), listed as Cilnidipine 10 mg

## COCCOC(=O)C1=C(C)NC(C)=C(C(=O)OC/C=C/c2ccccc2)C1c1cccc([N+](=O)[O-])c1 (stereo not shown) [Cilnidipine, 1,4-dihydro-2,6-dimethyl,4-(3-nitrophenyl)-3,5-pyridinedicarboxylic acid 2-methoxyethyl (2 E)-3-phenyl-2-propenyl ester]
[1]
  Average Duration of weekly RP attacks (All Attacks), Max: 31.5, 31.5 minutes
  Average Duration of weekly RP attacks (All Attacks), Min: 31.5, 31.5 minutes
  Average duration of weekly RP attacks (All Attacks), Change from Baseline, Max: −8.5, −8.5 minutes
  Average duration of weekly RP attacks (All Attacks), Change from Baseline, Min: −8.5, −8.5 minutes
  Average duration of weekly RP attacks (All Attacks), Change from Baseline, Q1: −8.48, −8.48 minutes
  Average duration of weekly RP attacks (All Attacks), Change from Baseline, Q3: −8.48, −8.48 minutes
  Average duration of weekly RP attacks (All Attacks), Percent Change from Baseline, Max: −21.2, −21.2%
[2]
  Average Duration of weekly RP attacks (All Attacks): 3.0 min
  Average Duration of weekly RP attacks (All Attacks), Max: 30.5 min
  Average Duration of weekly RP attacks (All Attacks), Q1: 3.00 min
  Average duration of weekly RP attacks (All Attacks), Change from Baseline: -7.6 min
  Average duration of weekly RP attacks (All Attacks), Change from Baseline, Max: 5.5 min
  Average duration of weekly RP attacks (All Attacks), Change from Baseline, Q3: 5.45 min
  Average duration of weekly RP attacks (All Attacks), Percent Change from Baseline, Max: 21.8%
  Average duration of weekly RP attacks (All Attacks), Percent Change from Baseline, Min: −71.8%
  Average duration of weekly RP attacks (All Attacks), Percent Change from Baseline, Q1: −71.76%
  Average duration of weekly RP attacks (All Attacks), Percent Change from Baseline, Q3: 21.82%
[3]
  Average Duration of weekly RP attacks (All Attacks): 3.0 min
  Average Duration of weekly RP attacks (All Attacks), Max: 31.5 min
  Average Duration of weekly RP attacks (All Attacks), Q1: 3.00 min
  Average duration of weekly RP attacks (All Attacks), Change from Baseline: -8.5 min
  Average duration of weekly RP attacks (All Attacks), Change from Baseline, Max: 5.5 min
  Average duration of weekly RP attacks (All Attacks), Change from Baseline, Q1: -8.48 min
  Average duration of weekly RP attacks (All Attacks), Change from Baseline, Q3: 5.45 min
  Average duration of weekly RP attacks (All Attacks), Percent Change from Baseline, Max: 21.8%
  Average duration of weekly RP attacks (All Attacks), Percent Change from Baseline, Min: −71.8%
  Average duration of weekly RP attacks (All Attacks), Percent Change from Baseline, Q1: −71.76%
  Average duration of weekly RP attacks (All Attacks), Percent Change from Baseline, Q3: 21.82%
[4]
  Average duration of weekly RP attacks (All Attacks), Baseline, Max: 40.0, 40.0 minutes
  Average duration of weekly RP attacks (All Attacks), Baseline, Min: 40.0, 40.0 minutes
  Average duration of weekly RP attacks (All Attacks), Baseline, Q1: 40.00, 40.00 minutes
  Average duration of weekly RP attacks (All Attacks), Baseline, Q3: 40.00, 40.00 minutes
[5]
  Average duration of weekly RP attacks (All Attacks), Baseline: 10.6 min
  Average duration of weekly RP attacks (All Attacks), Baseline, Max: 25.0 min
  Average duration of weekly RP attacks (All Attacks), Baseline, Q1: 10.63 min
  Average duration of weekly RP attacks (All Attacks), Baseline, Q3: 25.00 min
[6]
  Average duration of weekly RP attacks (All Attacks), Baseline: 10.6 min
  Average duration of weekly RP attacks (All Attacks), Baseline, Max: 40.0 min
  Average duration of weekly RP attacks (All Attacks), Baseline, Mean: 25.21 min
  Average duration of weekly RP attacks (All Attacks), Baseline, Median: 25.00 min
  Average duration of weekly RP attacks (All Attacks), Baseline, Q1: 10.63 min
  Average duration of weekly RP attacks (All Attacks), Baseline, Q3: 40.00 min
[7]
  Average Duration of weekly RP attacks (All Attacks), Max: 31.5, 31.5 minutes
  Average Duration of weekly RP attacks (All Attacks), Min: 31.5, 31.5 minutes
  Average duration of weekly RP attacks (All Attacks), Change from Baseline, Max: −8.5, −8.5 minutes
  Average duration of weekly RP attacks (All Attacks), Change from Baseline, Min: −8.5, −8.5 minutes

— US20240398771A1, “TREATMENT OF SCLERODERMA AND RAYNAUD'S SYNDROME” (Aisa Pharma, Inc., priority 2023, published 2024)
